US20230130144A1, “PHARMACEUTICAL COMBINATION AND USE THEREOF” (NATURAL MEDICINE INSTITUTE OF ZHEJIANG YANGSHENGTANG CO., …, priority 2020, published 2023)
“And” between values parts separate entries of the source, which are not always exact repeats. Equal values may be shown once. Read-outs that look alike come from different tables or passages of the source.

Assays:
Type in all cases: cell-based
[1] = system: 143B human osteosarcoma cells; test: Cell count (Trypan Blue) viability, drug combination administration, 143B cells; conditions: 24 h; for viability at 50 µM / viability at 20 µM / viability at 10 µM: Homo sapiens, read-out: cell viability
Method: (§1) 10 μL was taken for counting.
(§2) (5) After 24 h of dosing, the medium was discarded. […] The cells were digested for 5 min.

[2] = system: HOS human osteosarcoma cells; test: Cell count (Trypan Blue) viability, drug combination administration, HOS cells; conditions: 24 h, read-out: cell viability
Method: HEK293 cells, HOS human osteosarcoma cells and 143B human osteosarcoma cells were subcultured in an incubator at 37° C., 5% CO2 using a RPMI-1640 medium containing 10% fetal bovine serum (FBS).
as §1
(3) After counting, the cells were diluted to 1×10^5 cells/ml.
as §2

[3] = system: DB lymphoma cells; test: Cell viability of lymphoma cells by the method of Example 1; conditions: Homo sapiens
Method: (§3) (6) After digestion, equivalent amounts of PBS were added into each well and mixed uniformly. Then, 10 μL/well of Trypan Blue solution was added and mixed uniformly. 10 μL of the well-mixed solution was taken and counted. In accordance with “Cell viability=Cell Count of Test Group/Cell Count of Control Group×100%”, the cell viability of various groups was calculated.
For example, as for the DB lymphoma cells, the control group involves adding the solvent DMSO alone, the Vc group involves adding 2 mM of ascorbic acid, the low-dose Nic group involves adding 1 μM of Niclosamide, the low-dose Nic+Vc group involves adding 1 μM of Niclosamide and 2 mM of ascorbic acid, the high-dose Nic group involves adding 2 μM of Niclosamide, and the high-dose Nic+Vc group involves adding 2 μM of Niclosamide and 2 mM of ascorbic acid.

[4] = system: MC38 colon cancer cells; test: Cell viability of colon cancer cells by the method of Example 1; conditions: Mus musculus
Method: as §3
For example, as for MC38 colon cancer cells, the control group involves adding the solvent DMSO alone, the Nic group involves adding 1 μM of Niclosamide, the Vc group involves adding 0.5 mM of ascorbic acid, the Nic+Vc group involves adding 1 μM of Niclosamide and 0.5 mM of ascorbic acid.

Question: With `CS(=O)(=O)c1ccc(C(=O)Nc2ccc(Cl)c(-c3ccccn3)c2)c(Cl)c1` [Vismodegib] as the compound, how does the viability at 50 µM ([1]; 143B cells, single drug 50 μM) read?
Answer: 60%

Question: And the viability at 50 µM ([2]; HOS cells, single drug 50 μM)?
Answer: 53%

Question: How did the viability at 20 µM ([1]; 143B) turn out when `O=C(O)CC[C@H]1CC[C@@](c2cc(F)ccc2F)(S(=O)(=O)c2ccc(Cl)cc2)CC1` [MK0752] was run?
Answer: 62%

Question: What about the viability at 20 µM ([2]; HOS) of the same compound?
Answer: 67%

Question: `COc1ccc2cc3[n+](cc2c1OC)CCc1cc2c(cc1-3)OCO2` [berberine] was tested. Which viability at 20 µM ([1]; 143B) did it give?
Answer: 94%

Question: What about the viability at 20 µM ([2]; HOS) of the same compound?
Answer: 82%

Question: Which viability at 20 µM ([1]; 143B) does the source give for `Cn1c(=O)c2c(ncn2CC(=O)Nc2ccc(-c3ccccc3)nn2)n(C)c1=O` [ETC-159] here?
Answer: 60%

Question: And the viability at 20 µM ([2]; HOS)?
Answer: 67%

Question: What does the source list for `Cc1c(C(=O)Nc2ccc(N3C[C@@H](C)O[C@@H](C)C3)nc2)cccc1-c1ccc(OC(F)(F)F)cc1` [Sonidegib]?
Answer: viability at 10 µM ([1]; 143B): 74%; viability at 10 µM ([2]; HOS): 89%

Question: `CC1=C(CC(=O)O)c2cc(F)ccc2/C1=C\c1ccc([S+](C)[O-])cc1` (centres unmarked) [Sulindac] was tested. Which viability at 50 µM ([2]; HOS) did it give?
Answer: 92%

Question: How did the viability at 20 µM ([1]; 143B) turn out when `Cc1cc(-c2ncc(CC(=O)Nc3ccc(-c4cnccn4)cn3)cc2C)ccn1` [LGK974] was run?
Answer: 64%

Question: And the viability at 20 µM ([2]; HOS)?
Answer: 67%

Question: `O=C(Nc1ccc([N+](=O)[O-])cc1Cl)c1cc(Cl)ccc1O` [Niclosamide] was tested. Which viability at 1 µM ([3]; 1 μM Niclosamide alone (low-dose)) did it give?
Answer: 57%

Question: And the viability at 2 µM ([3]; 2 μM Niclosamide alone (high-dose))?
Answer: 52%

Question: And the viability at 50 µM ([1]; 143B)?
Answer: 59%

Question: And the viability at 1 µM ([4]; MC-38, 1 μM Niclosamide alone)?
Answer: 82%

Question: And the viability at 50 µM ([2]; HOS)?
Answer: 56%

Question: `CC(C)(C(=O)NCC(F)(F)C(F)(F)F)C(=O)N[C@@H]1C(=O)Nc2ccccc2-c2ccccc21` [RO4929097] was tested. Which viability at 10 µM ([1]; 143B) did it give?
Answer: 58%

Question: What about the viability at 10 µM ([2]; HOS) of the same compound?
Answer: 56%

Question: How did the cell viability ([1]; 143B cells, 0.5 mM sodium ascorbate alone) turn out when `O=C1O[C@H]([C@@H](O)CO)C([O-])=C1O.[Na+]` [sodium ascorbate] was run?
Answer: 106% and 90% and 83% and 77% and 80% and 81% and 82%

Question: What does the source list for `O=C1O[C@H]([C@@H](O)CO)C(O)=C1O` [ascorbic acid]?
Answer: viability at 2000 µM ([3]; 2 mM ascorbic acid alone): 76%; viability at 500 µM ([4]; MC-38, 0.5 mM ascorbic acid alone): 105%
